Earlier results as cited in publication PMC3388080 (PLoS ONE, 2012).

Biological target: hHCRTR1
Parameters: method as in PMID 9821961
Conditions: 37°C; cited from earlier work

SMILES: CNC(=O)[C@@H](c1ccccc1)N1CCc2cc(OC)c(OC)cc2[C@@H]1CCc1ccc(C(F)(F)F)cc1 [almorexant, (2R)-2-[(1S)-6,7-Dimethoxy-1-[2-(4-trifluoromethyl-phenyl)-ethyl]-3,4-dihydro-1H-isoquinolin-2-yl]-N-methyl-2-phenyl-acetamide]
- Ki: 4.7 nM
